Data set [1] in a line: Stability of single, double and triple combination aerosol solution formulations: residual content of active ingredient in the can. The class given is physicochemical. To be noted: for Residual % amount ± standard deviation: stored 3 months at 25° C./60% relative humidity, versus amount at time 0.
Protocol: +25° C./60% relative humidity (accelerated storage conditions);
+30° C./65% relative humidity; and
+40° C./75% relative humidity.
Data set [2] can be described thus: Analysis of impurities/degradation products by HPLC/UV VIS. The settings on record: for Total impurities % Vs active ingredient: stored 3 months at 25° C./60% relative humidity.
Setting [3] is: triple combination FF+GLY+BDP aerosol solution.
The mark [4] stands for this setting: triple combination, +5° C. to +40° C./75% RH, 1, 2 and 3 months.
Setting [5] is: triple combination FF+GLY+BDP, versus initial amount of the active ingredient.

Structures are written as SMILES.

For `CCC(=O)OCC(=O)[C@@]1(OC(=O)CC)[C@@H](C)C[C@H]2[C@@H]3CCC4=CC(=O)C=C[C@]4(C)[C@@]3(Cl)[C@@H](O)C[C@@]21C` [BDP, beclometasone dipropionate], the “Residual % amount ± standard deviation” value in data set [1] (double combination FF + BDP) is given as 98.9 ± 0.6%; in data set [1] (setting [3]), 94.5 ± 0.3%. In addition, the “can content versus time and temperature of storage” value in data set [1] (setting [4]) is “not significantly affected by time and temperature”. Also, the entries for the “Total impurities % Vs active ingredient” value in data set [2] (double combination FF + BDP) and in data set [2] (setting [5]) were 0.20% and 0.21%, respectively.

`COc1ccc(C[C@@H](C)NC[C@H](O)c2ccc(O)c(NC=O)c2)cc1.COc1ccc(C[C@@H](C)NC[C@H](O)c2ccc(O)c(NC=O)c2)cc1.O=C(O)/C=C/C(=O)O` [FF, formoterol fumarate]: the “Total impurities % Vs active ingredient” value in data set [2] (double combination FF + BDP) is reported as 0.80%; in data set [2] (double combination FF + Gly), 1.3%; in data set [2] (setting [5]) it was 1.1%. In addition, the “level of degradation products (HPLC/UV)” value in data set [2] (formulations comprising both formoterol and GLY) is reported as “high levels of degradation products”.

Regarding `C[N+]1(C)CCC(OC(=O)C(O)(c2ccccc2)C2CCCC2)C1.[Cl-]` (stereo not drawn) [Gly, 3-[(cyclopentylhydroxyphenyl-acetyl)oxy]-1,1-dimethylpyrrolidinium chloride], the “Residual % amount ± standard deviation” value in data set [1] (double combination FF + Gly) is 96.0 ± 0.1%; in data set [1] (setting [3]) it was 96.4 ± 1.3%. Further, the “can content versus time and temperature of storage” value is “remains stable under all of the tested conditions” in data set [1] (double combination FF+GLY, all tested storage conditions); “maintain a constant content” in data set [1] (single agent GLY formulation in the presence of 1M HCl); “highly dependent on time and temperature of storage” in data set [1] (single agent GLY formulation, acid omitted); “not significantly affected by time and temperature” in data set [1] (setting [4]).

These data come from US20140363384A1, “COMBINATION THERAPY FOR COPD” (CHIESI FARMACEUTICI S.p.A., priority 2009, published 2014).
